Measured values published in US20230181599A1, “PROGESTOGEN FORMULATIONS AND USES THEREOF” (Shenzhen Evergreen Therapeutics Co., Ltd, priority 2020, published 2023).

Experiments:
Body weight of COPD rats = type: in vivo, Wistar rats; settings: at 24 weeks; for weight increase: vs model group / BUD alone groups
Source text: Inhibition of weight increase was lower in 17-HPC group than in the same dose BUD group.

[1] = tested on: smoke exposure-induced COPD rats; test: Lung function (FEV0.2/FVC, small animal spirometer) in smoke exposure-induced COPD rats; type: in vivo, Wistar rats; settings: CS-exposed rats, nebulized drug; compared with the model group
Description: (§1) Seventy-two Wistar rats were randomly divided into the blank control group, model group, 17-HPC (0.5 mg/ml, 0.25 mg/ml and 0.1 mg/ml) groups, BUD (0.5 mg/ml and 0.1 mg/ml) groups, and combination treatment (0.5 mg/ml BUD+0.25 mg/ml 17-HPC and 0.1 mg/ml BUD+0.25 mg/ml 17-HPC) groups. Drug concentration is the nebulized solution concentration. Lung function (forced vital capacity) of rats was measured using the small animal spirometer, and differential count in the BALF was determined under the microscope. Serum and BALF cytokine (IL-6, IL-17, TNF-α and IL-β) levels were measured by ELISA. Inflammatory cell infiltration area and MLI in rat lung tissues were determined by HE staining. Lung function of rats was measured using the small animal spirometer after 24 weeks of CS exposure.

[2] = tested on: smoke exposure-induced COPD rats; test: Differential count in BALF (neutrophils) of COPD rats; type: in vivo, Wistar rats; settings: CS-exposed rats, nebulized drug
Description: (§2) Seventy-two Wistar rats were randomly divided into the blank control group, model group, 17-HPC (0.5 mg/ml, 0.25 mg/ml and 0.1 mg/ml) groups, BUD (0.5 mg/ml and 0.1 mg/ml) groups, and combination treatment (0.5 mg/ml BUD+0.25 mg/ml 17-HPC and 0.1 mg/ml BUD+0.25 mg/ml 17-HPC) groups. Drug concentration is the nebulized solution concentration. Lung function (forced vital capacity) of rats was measured using the small animal spirometer, and differential count in the BALF was determined under the microscope. Serum and BALF cytokine (IL-6, IL-17, TNF-α and IL-β) levels were measured by ELISA. Inflammatory cell infiltration area and MLI in rat lung tissues were determined by HE staining. […] The efficacy of high dose BUD was equivalent to that of high dose BUD+17-HPC.

[3] = tested on: TNF-α, IL-1β, IL-6 and IL-17; test: Serum and BALF cytokine levels by ELISA in COPD rats; type: in vivo, Wistar rats; settings: different doses, aside from the low dose (0.1 mg/ml) 17-HPC group
Description: as §1, with “To examine the in vitro and in vivo efficacy of 17-HPC inhalation in chronic obstructive pulmonary disease (COPD) rats, a rat model of COPD was established by exposing Wistar rats to CS for 1 hour every day for a total of 180 days. Seventy-two” for “Seventy-two”, “staining.” for “staining. Lung function of rats was measured using the small animal spirometer after 24 weeks of CS exposure.”

[4] = tested on: smoke exposure-induced COPD rats; test: HE staining of lung tissue: inflammatory cell infiltration area and MLI in COPD rats; type: in vivo, Wistar rats
Description: as §2

[5] = Seven-day inhalation toxicity study in rats (GLP); type: in vivo, Sprague-Dawley rats; settings: both sexes, Sprague-Dawley, rat, in vivo, inhaled or intranasal; inhalation, 7 consecutive days, rats; preliminary results; read-out: no observed adverse effect level (NOAEL)
Description: (§3) A 7-day inhalation toxicity study in rats was conducted under GLP conditions. In this study, aerosolized 17-HPC was administered to Sprague-Dawley rats (10/sex/group) at 8, 24, and 72 mg/kg/day for 7 consecutive days. A control group of rats was dosed with aerosolized vehicle. Animals were observed daily for clinical signs. Body weight and food consumption were recorded at pretest, and then on Days 1, 4, and 7. In order to evaluate reversibility of 17-HPC treatment, a satellite rat group (5/sex/group) was dosed by inhalation at 72 mg/kg/day for 7 days, and then was sacrificed on Day 14. Except for the rats in the satellite group, all animals were sacrificed on Day 8. Hematology and biochemistry examinations were performed at the end of the study. Organ weight, gross pathology, and histopathology evaluations were performed.
(§4) Histopathological examinations on the animal tissues from the 24 and 72 mg/kg/day groups have not been completed prior to submission of this pre-IND package.
(§5) Based on the preliminary results of this study, inhalational administration of 17-HPC at 8 mg/kg/day (48 mg/m^2/day) was determined as the no observed adverse effect level (NOAEL) The proposed clinical study is a single dose inhalation study starting at a dose level of 300 μg, which is approximately 6 μg/kg/day (222 μg/m^2/day) based on a human body weight of 50 kg/person. Therefore, the NOAEL generated in this inhalation study is approximately 216 times greater than the proposed initial clinical dose based on body surface areas.

Sprague-Dawley rats = test: Seven-day inhalation toxicity study in rats (GLP); type: in vivo
Description: as §3, §4, §5

[6] = PK of oral formulations of PR2005 in female dogs, relative bioavailability vs intramuscular injection (MAKENA); type: in vivo
Source text: This study determined the pharmacokinetic parameters of the test drug PR2005 (also referred to herein as 17-HPC) in different formulations after oral gavage or capsule administrations in dogs. This study further determined the relative bioavailability of the test drug PR2005 in each formulation, compared to intramuscular injection solution (MAKENA®).
PK parameters were estimated, including maximum plasma drug concentration (Cmax), time to reach Cmax (Tmax), time delay in absorption process (Tlag), area under the plasma concentration-time curve from time 0 to the last quantifiable data point (AUClast), area under the plasma concentration-time curve from time zero to infinity (AUCinf), plasma half-life (t1/2), and apparent plasma clearance (CL/F), apparent volume of distribution (Vz/F). All these parameters were computed using standard non-compartmental methods of analysis. Geometric mean and CV % are reported for most of PK parameters, and median with range is reported for Tmax and Tlag. Plasma PR2005 PK data was analyzed in Pheonix WinNonLin 8.1 (Certara USA, Inc.).
Log-transformed values of AUCinf were analyzed using a linear mixed-effects model. Least squares mean (LSM) for each treatment group and 90% confidence interval (CI) for the mean of the pairwise differences were estimated using this model. After back transformation from the log scale, estimates of geometric LSM and 90% CI for the ratio of means were calculated. Relative bioavailability (Fr %) was calculated as the ratio of dose normalized geometric least square mean (LSM) for test formulation and IM solution: […]
PR2005 250 mg intramuscular injection: 250 mg 17-HPC, 28.6% v/v of castor oil (CAS 8001-79-4), 46% v/v of benzyl benzoate (CAS 120-51-4), and 2% v/v of benzyl alcohol.
PR2005 250 mg oral (powder in capsules): 20% w/w of 17-HPC and 80% w/w mannitol. The particle size of 17-HPC is from about 2 to about 10 μm.
PR2005 250 mg Suspension #1: 30% w/w of 17-HPC and 70% castor oil (CAS 8001-79-4). The particle size of 17-HPC is from about 5 to about 30 μm.
PR2005 250 mg and 750 mg Solution #3: 30% w/w of 17-HPC, 63% w/w of benzyl benzoate (CAS 120-51-4), and 7% w/w of macrogolglycerol ricinoleate (CAS 61791-12-6).
The test items were administered on the first day of each trial. Each animal group was rotated through each trial with at least 4 days between trials and a […] 7-day washout between each test item administration.

[7] = Saxton D J et al. 2004; cited from earlier work
[8] = molecular target: ABCB1 efflux transporters (Homo sapiens, UniProt P08183); settings: Bloise, E., et al. 2016; cited from earlier work
[9] = 250 mg intramuscular injection, geometric mean

Chain of ABCB1 efflux transporters (P08183 whole entry): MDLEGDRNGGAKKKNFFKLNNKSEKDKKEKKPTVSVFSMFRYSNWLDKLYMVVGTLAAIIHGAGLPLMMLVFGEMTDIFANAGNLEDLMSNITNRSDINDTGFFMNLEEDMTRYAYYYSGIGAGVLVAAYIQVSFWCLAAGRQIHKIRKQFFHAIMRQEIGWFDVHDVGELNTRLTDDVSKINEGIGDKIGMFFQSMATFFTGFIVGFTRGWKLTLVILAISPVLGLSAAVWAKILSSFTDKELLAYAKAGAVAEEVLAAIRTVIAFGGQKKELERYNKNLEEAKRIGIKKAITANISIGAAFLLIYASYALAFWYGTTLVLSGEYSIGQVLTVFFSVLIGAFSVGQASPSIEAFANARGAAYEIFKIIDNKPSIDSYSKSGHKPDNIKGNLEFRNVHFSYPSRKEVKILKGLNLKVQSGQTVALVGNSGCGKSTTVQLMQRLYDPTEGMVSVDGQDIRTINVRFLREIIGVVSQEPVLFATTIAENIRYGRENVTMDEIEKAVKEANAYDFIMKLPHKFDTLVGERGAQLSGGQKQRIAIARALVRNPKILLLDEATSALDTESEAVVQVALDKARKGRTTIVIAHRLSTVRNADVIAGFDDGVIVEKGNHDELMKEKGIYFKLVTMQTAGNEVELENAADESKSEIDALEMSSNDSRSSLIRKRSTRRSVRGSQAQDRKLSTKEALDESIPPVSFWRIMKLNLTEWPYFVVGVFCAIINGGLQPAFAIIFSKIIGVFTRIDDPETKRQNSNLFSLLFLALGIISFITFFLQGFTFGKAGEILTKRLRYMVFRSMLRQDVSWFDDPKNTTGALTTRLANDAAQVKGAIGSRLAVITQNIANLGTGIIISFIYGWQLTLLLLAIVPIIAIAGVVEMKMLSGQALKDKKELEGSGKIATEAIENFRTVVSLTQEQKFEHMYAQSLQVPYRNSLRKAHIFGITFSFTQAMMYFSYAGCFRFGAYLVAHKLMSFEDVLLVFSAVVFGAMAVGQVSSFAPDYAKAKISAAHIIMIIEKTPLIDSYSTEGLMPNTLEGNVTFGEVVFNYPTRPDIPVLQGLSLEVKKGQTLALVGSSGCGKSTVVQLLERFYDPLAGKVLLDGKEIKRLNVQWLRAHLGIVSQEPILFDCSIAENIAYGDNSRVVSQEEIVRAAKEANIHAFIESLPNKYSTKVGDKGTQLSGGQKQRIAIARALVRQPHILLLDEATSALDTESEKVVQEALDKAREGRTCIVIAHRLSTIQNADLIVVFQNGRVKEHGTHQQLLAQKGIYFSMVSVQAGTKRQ

Compound	weight increase (Body weight of COPD rats)	FEV0.2/FVC % [1]	percentage of neutrophils in rat BALF [2]	TNF-α, IL-1β, IL-6 and IL-17 levels in the BALF [3]	inflammatory cell infiltration in lung tissue sections (HE staining) ([4]; 17-HPC groups vs model rats)	MLI ([4]; aside from the 0.1 mg/ml 17-HPC group, dose-dependent)	inflammatory cell infiltration in the lung tissues ([4]; high dose 17-HPC)	Inhibition of weight increase vs same dose BUD group (Body weight of COPD rats)	NOAEL at 7 days [5]	no observed adverse effect level (NOAEL), body surface area (Sprague-Dawley rats; inhalation, 7 days, rats)	NOAEL relative to the proposed initial clinical dose (300 μg) based on body surface areas (Sprague-Dawley rats; rat, in vivo)	pathological alterations after a 7-day recovery period (Sprague-Dawley rats; rat, in vivo, 72 mg/kg/day)	Cl/F [6, 9]	V [6, 9]	half-life ([6]; female, dog, plasma, im, 250 mg intramuscular injection, geometric mean)	Tmax ([6]; female, dog, plasma, im, 250 mg intramuscular injection, median)	dose proportionality of Cmax and AUC, 250 to 750 mg ([6]; oral)	activity when administered orally [7]	ABCB1 efflux transporter substrate [8]
CCCC1O[C@@H]2C[C@H]3[C@@H]4CCC5=CC(=O)C=C[C@]5(C)[C@H]4[C@@H](O)C[C@]3(C)[C@]2(C(=O)CO)O1 (some centres unmarked) [BUD, budesonide]	inhibited weight increase	–	–	–	–	–	–	–	–	–	–	–	–	–	–	–	–	–	–
CCCCCC(=O)O[C@]1(C(C)=O)CC[C@H]2[C@@H]3CCC4=CC(=O)CC[C@]4(C)[C@H]3CC[C@@]21C [Solution 17-HPC, 17-[(1-Oxohexyl)oxyl]-pregn-4-ene-3,20-dione]	no difference in weight increase	improved FEV0.2/FVC % in a dose-dependent manner	reduced the percentage of neutrophils	downregulate	attenuated	decreased	antagonize inflammatory cell infiltration	lower	8 mg/kg/day	48 mg/m^2/day	approximately 216 times	no remarkable pathological alterations	35.68 L/h	2485 L	48.4 h	48 h	generally greater than dose proportional	inactive	substrate of ABCB1 efflux transporters
